Results: US20110183928A1 (BAYER SCHERING PHARMA AKTIENGESELLSCHAFT, priority 2008, published 2011)

Columns and labels:
Assay type in all cases: cell-based
[1] = target: T1, human mineralocorticoid receptor (MR) (Homo sapiens, UniProt P08235); experiment: Cellular in vitro assay, GAL4-MR chimera luciferase reporter in CHO K1 cells (inhibitory MR activity); details: GAL4-MR ligand-binding domain chimera, agonist aldosterone
T1 construct: expressed in transfected cells; host or cells: CHO K1
T1 sequence (P08235 734-984 limits assumed): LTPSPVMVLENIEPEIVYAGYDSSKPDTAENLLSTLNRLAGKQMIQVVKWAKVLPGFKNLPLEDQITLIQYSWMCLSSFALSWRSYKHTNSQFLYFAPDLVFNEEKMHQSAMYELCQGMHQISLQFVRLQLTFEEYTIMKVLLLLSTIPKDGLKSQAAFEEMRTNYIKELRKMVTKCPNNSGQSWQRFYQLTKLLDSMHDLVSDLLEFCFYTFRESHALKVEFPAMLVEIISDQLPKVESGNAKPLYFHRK
From the text: (§1) 1. Cellular In Vitro Assay to Determine the Inhibitory MR Activity and MR Selectivity Compared with Other Steroid Hormone Receptors
(§2) Antagonists of the human mineralocorticoid receptor (MR) are identified, and the efficacy of the compounds described herein is quantified with the aid of a recombinant cell line. The cell is originally derived from a hamster ovary epithelial cell (Chinese Hamster Ovary, CHO K1, ATCC: American Type Culture Collection, VA 20108, USA).
(§3) An established chimera system in which the ligand-binding domains of human steroid hormone receptors are fused to the DNA-binding domain of the yeast transcription factor GAL4 is used in this CHO K1 cell line. The GAL4-steroid hormone receptor chimeras produced in this way are cotransfected and stably expressed with a reporter construct in the CHO cells.
(§4) To generate the GAL4-steroid hormone receptor chimeras, the GAL4 DNA-binding domain (amino acids 1-147) from the vector pFC2-dbd (from Stratagene) is cloned with the PCR-amplified ligand-binding domains of the mineralocorticoid receptor (MR, amino acids 734-985), of the glucocorticoid receptor (GR, amino acids 443-777), of the progesterone receptor (PR, amino acids 680-933) and of the androgen receptor (AR, amino acids 667-919) into the vector pIRES2 (from Clontech). The reporter construct, which contains five copies of the GAL4 binding site upstream of a thymidine kinase promoter, leads to expression of firefly luciferase (Photinus pyralis) after activation and binding of the GAL4-steroid hormone receptor chimeras by the respective specific agonists aldosterone (MR), dexamethasone (GR), progesterone (PR) and dihydrotestosterone (AR).
(§5) The MR, GR, PR and AR cells are plated out in medium (Optimem, 2.5% FCS, 2 mM glutamine, 10 mM HEPES) in 96-well (or 384- or 1536-well) microtiter plates the day before the assay, and are kept in a cell incubator (96% air humidity, 5% v/v CO2, 37° C.). On the day of the assay, the substances to be tested are taken up in the abovementioned medium and added to the cells. About 10 to 30 minutes after addition of the test substances, the respective specific agonists of the steroid hormone receptors are added. After a further incubation time of 5 to 6 hours, the luciferase activity is measured with the aid of a video camera. The relative light units measured as a function of the substance concentration give a sigmoidal stimulation curve. The IC50 values are calculated with the aid of the computer program GraphPad PRISM (Version 3.02).

androgen receptor (AR) = target: T2, androgen receptor (AR) (Homo sapiens, UniProt P10275); experiment: Cellular in vitro assay, GAL4-AR chimera luciferase reporter in CHO K1 cells (selectivity); details: GAL4-AR ligand-binding domain chimera, agonist dihydrotestosterone
T2 construct: of the androgen receptor (AR, amino acids 667-919); expressed in transfected cells; host or cells: CHO K1
T2 sequence (P10275 667-919): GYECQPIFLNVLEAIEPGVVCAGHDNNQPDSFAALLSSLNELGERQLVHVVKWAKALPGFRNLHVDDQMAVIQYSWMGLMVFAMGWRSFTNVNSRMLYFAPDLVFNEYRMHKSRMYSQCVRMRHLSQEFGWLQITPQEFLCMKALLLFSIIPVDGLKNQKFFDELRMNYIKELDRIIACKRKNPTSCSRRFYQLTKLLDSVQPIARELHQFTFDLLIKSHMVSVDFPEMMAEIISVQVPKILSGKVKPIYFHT
From the text: as §1, §2, §3, §4, §5

[2] = target: T3, glucocorticoid receptor (GR) (Homo sapiens, UniProt P04150); experiment: Cellular in vitro assay, GAL4-GR chimera luciferase reporter in CHO K1 cells (selectivity); details: GAL4-GR ligand-binding domain chimera, agonist dexamethasone
T3 construct: of the glucocorticoid receptor (GR, amino acids 443-777); expressed in transfected cells; host or cells: CHO K1
T3 sequence (P04150 443-777): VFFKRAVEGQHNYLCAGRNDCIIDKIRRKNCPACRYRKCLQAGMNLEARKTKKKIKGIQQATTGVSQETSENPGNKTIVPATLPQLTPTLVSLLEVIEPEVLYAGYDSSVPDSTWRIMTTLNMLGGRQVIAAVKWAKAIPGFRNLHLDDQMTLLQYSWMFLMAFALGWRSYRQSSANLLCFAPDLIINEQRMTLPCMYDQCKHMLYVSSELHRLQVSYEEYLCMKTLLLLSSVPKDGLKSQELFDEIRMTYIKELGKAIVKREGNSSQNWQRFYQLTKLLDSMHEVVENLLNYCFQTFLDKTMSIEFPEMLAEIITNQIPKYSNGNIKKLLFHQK
From the text: as §1, §2, §3, §4, §5

[3] = target: T4, progesterone receptor (PR) (Homo sapiens, UniProt P06401); experiment: Cellular in vitro assay, GAL4-PR chimera luciferase reporter in CHO K1 cells (selectivity); details: GAL4-PR ligand-binding domain chimera, agonist progesterone
T4 construct: of the progesterone receptor (PR, amino acids 680-933); expressed in transfected cells; host or cells: CHO K1
T4 sequence (P06401 680-933): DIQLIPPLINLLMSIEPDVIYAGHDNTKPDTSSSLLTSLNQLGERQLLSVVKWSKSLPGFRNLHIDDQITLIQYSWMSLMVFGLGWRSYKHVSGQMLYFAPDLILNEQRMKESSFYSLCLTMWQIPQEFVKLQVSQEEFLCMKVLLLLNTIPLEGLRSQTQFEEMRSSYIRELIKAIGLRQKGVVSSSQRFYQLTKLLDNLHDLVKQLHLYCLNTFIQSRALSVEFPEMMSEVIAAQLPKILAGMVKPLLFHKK
From the text: as §1, §2, §3, §4, §5

SMILES	IC50 [1] [µM]	IC50 (androgen receptor (AR)) [µM]	IC50 [2] [µM]	IC50 [3] [µM]
Cc1cccc2c(C(CCCC#N)c3ccc(C(F)(F)F)cc3)c[nH]c12 (single isomer, unassigned) [Example 8-1, 5-(7-Methyl-1H-indol-3-yl)-5-[4-(trifluoromethyl)phenyl]pentanenitrile]	0.2	1.53	5.1	2.71
CS(=O)(=O)Nc1cccc2c(C(CCC#N)c3ccc(C(F)(F)F)cc3)c[nH]c12 (single isomer, unassigned) [Example 17-1]	0.02	2.27	2.21	4.5
CS(=O)(=O)Nc1cccc2c(C(CCO)c3ccc(C(F)(F)F)cc3)c[nH]c12 (stereo not shown) [Example 16, N-(3-{3-Hydroxy-1-[4-(trifluoromethyl)phenyl]propyl}-1H-indol-7-yl)methanesulfonamide]	0.33	–	0.7	–

Second part, the compound after the results:

IC50 [1] [µM]	IC50 (androgen receptor (AR)) [µM]	IC50 [2] [µM]	IC50 [3] [µM]	SMILES
0.42	3.65	6.47	5.87	CCc1cccc2c(C(CCCO)c3ccc(C(F)(F)F)cc3)c[nH]c12 (single isomer, unassigned) [Example 3-1, 4-(7-Ethyl-1H-indol-3-yl)-4-[4-(trifluoromethyl)phenyl]butan-1-ol]
0.14	2	2.34	1.74	CCc1cccc2c(C(CCCC#N)c3ccc(C(F)(F)F)cc3)c[nH]c12 (single isomer, unassigned) [Example 4-1, 5-(7-Ethyl-1H-indol-3-yl)-5-[4-(trifluoromethyl)phenyl]pentanenitrile]
0.09	4.2	0.39	3.35	CCc1cccc2c(C(CCC#N)c3ccc4ccccc4c3)c[nH]c12 (stereo not shown) [Example 34]
